Experimental data: US20200206173A1, “A PERSONAL CARE COMPOSITION” (Conopco, Inc., d/b/a UNILEVER, priority 2017, published 2020)

System: IL-6 in THP-1 monocytes
Assay: Anti-inflammation efficacy in THP-1 in vitro assay: IL-6 in supernatant by ELISA after LPS stimulation
Type: cell-based
Conditions: LPS 1 μg/mL, 24 hours, PMA-differentiated THP-1
Method: The following procedure was used to test the anti-inflammation efficacy of the various actives alone or in combination. • (i) 5×10^5 THP-1 monocytes were placed into 24-well plates, with 100 nM PMA in the culture media to differentiate the cell. • (ii) After 72 hours differentiation, treatments as follows were supplemented into fresh media and applied to the cells: • Example 1: Vehicle control with LPS (1 μg/mL) stimulation • Example 2,3: DHA at 100 or 20 μM alone with LPS (1 μg/mL) stimulation. • Example 4,5: Niacinamide at 10000 or 5000 μM alone with LPS (1 μg/mL) stimulation. • Example 6,7: Combinations of 100 μM DHA and either 10000 or 5000 μM of niacinamide. • Example 8: Combination of 20 μM DHA and 10000 μM of niacinamide. • (iii) After 24 hours incubation, the supernatants were collected. • (iv) Then IL-6 concentration was quantified in the supernatant by BD Elisa kit. • (v) IL-6 inhibition rate was calculated in comparison with vehicle control with LPS stimulation as a reference for each treatment.
The lower the percentage, the higher the anti-inflammatory potential. The CI value (combination index) of the various combinations is also less than 1 indicating synergism.
The data below is expressed in % IL-6 inhibition rate in Table-2 below. • (i) 5×10^5 THP-1 monocytes were placed into 24-well plates, with 100 nM PMA in the culture media to differentiate the cell. • (ii) After 72 hours differentiation, treatments as follows were supplemented into fresh media and applied to the cells: • Example 9: Vehicle control with LPS (1 μg/mL) stimulation • Example 10,11,12: DHA at 100, 50 or 25 μM alone with LPS (1 μg/mL) stimulation. • Example 13,14,15: Niacinamide at 5000, 2500 or 1250 μM alone with LPS (1 μg/mL) stimulation. • Example 16: Combinations of 100 μM DHA and 5000 μM of niacinamide. • Example 17: Combination of 50 μM DHA and 2500 μM of niacinamide. • Example 18: Combination of 25 μM DHA and 1250 μM of niacinamide. • (iii) After 24 hours incubation, the supernatants were collected. • (iv) Then IL-6 concentration was tested in the supernatant by BD Elisa Kit. • (v) IL-6 inhibition rate was calculated in comparison with vehicle control with LPS stimulation as reference, for each treatment.
Experiments were carried out at various concentrations of DHA and niacinamide at mole ratios outside the invention i.e., at 1:12.5. The data below is expressed in % IL-6 inhibition rate in Table-3 below: • (i) 5×10^5 THP-1 monocytes were placed into 24-well plates, with 100nM PMA in the culture media to differentiate the cell. • (ii) After 72 hours differentiation, treatments as follows were supplemented into fresh media and applied to the cells: • Example 20: Vehicle control with LPS (1 μg/mL) stimulation • Example 21,22,23: DHA at 100, 50 or 25 μM alone with LPS (1 μg/mL) stimulation. • Example 24,25,26: Niacinamide at […] alone with LPS (1 μg/mL) stimulation. • Example 27: Combinations of 100 μM DHA and 1250 μM of niacinamide. • Example 28: Combination of 50 μM DHA and 625 μM of niacinamide. • Example 29: Combination of 25 μM DHA and […] of niacinamide. • (iii) After 24 hours incubation the supernatants were collected. • (iv) Then IL-6 concentration was tested in the supernatant by BD Elisa Kit. • (v) IL-6 inhibition rate was calculated in comparison with vehicle control with LPS stimulation as reference, for each treatment.

| Compound | % of LPS (concentration of IL-6 as a % of that obtained for LPS) (20 μM of DHA alone) [%] | % of LPS (concentration of IL-6 as a % of that obtained for LPS) (25 μM of DHA alone) [%] | % of LPS (concentration of IL-6 as a % of that obtained for LPS) (50 μM of DHA alone) [%] | % of LPS (concentration of IL-6 as a % of that obtained for LPS) (100 μM of DHA alone) [%] | % of LPS (concentration of IL-6 as a % of that obtained for LPS) (100 μM of DHA alone, listed as 10) [%] | % of LPS (concentration of IL-6 as a % of that obtained for LPS) (100 μM of DHA alone, listed as 21) [%] | % of LPS (concentration of IL-6 as a % of that obtained for LPS) (317.5 μM of niacinamide alone) [%] | % of LPS (concentration of IL-6 as a % of that obtained for LPS) (625 μM of niacinamide alone) [%] | % of LPS (concentration of IL-6 as a % of that obtained for LPS) (1250 μM of niacinamide alone, listed as 15) [%] | % of LPS (concentration of IL-6 as a % of that obtained for LPS) (1250 μM of niacinamide alone, listed as 24) [%] | % of LPS (concentration of IL-6 as a % of that obtained for LPS) (2500 μM of niacinamide alone) [%] | % of LPS (concentration of IL-6 as a % of that obtained for LPS) (5000 μM of niacinamide alone, listed as 5) [%] | % of LPS (concentration of IL-6 as a % of that obtained for LPS) (5000 μM of niacinamide alone, listed as 13) [%] | % of LPS (concentration of IL-6 as a % of that obtained for LPS) (10000 μM of niacinamide alone) [%] |
| --- | --- | --- | --- | --- | --- | --- | --- | --- | --- | --- | --- | --- | --- | --- |
| CC/C=C\C/C=C\C/C=C\C/C=C\C/C=C\C/C=C\CCC(=O)O [Example 2, docosahexaenoic acid] | 58.5 | 65.5 | 38.7 | 14.7 | 8.3 | 8.3 | – | – | – | – | – | – | – | – |
| NC(=O)c1cccnc1 [Example 4, niacinamide] | – | – | – | – | – | – | 84.2 | 77.6 | 64.5 | 35.4 | 50.8 | 33.4 | 26.5 | 5.7 |
